US9302999B2, “Substituted triazoles as herbicides” (E. I. DU PONT DE NEMOURS AND COMPANY, priority 2012, dated 2016)

Assays:
Format in all cases: in vivo
[1] = system: barnyardgrass (Echinochloa crus-galli); assay: Test A pre-/postemergence: barnyardgrass
Outline: (§1)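 Plants in loam–sand blend were treated with test chemicals in non-phytotoxic solvent with surfactant, either as preemergence directed soil spray or postemergence at 2–10 cm, one- to two-leaf stage. After about ten days in greenhouse, injury was rated visually against untreated controls on a 0–100 scale (100 = complete control).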

[2] = system: crabgrass, large (large crabgrass, Digitaria sanguinalis); assay: Test A pre-/postemergence: crabgrass, large
Outline: as §1

[3] = system: foxtail, giant (giant foxtail, Setaria faberii); assay: Test A pre-/postemergence: foxtail, giant
Outline: as §1

[4] = system: morningglory (Ipomoea spp.); assay: Test A pre-/postemergence: morningglory
Outline: as §1

[5] = system: pigweed (Amaranthus retroflexus); assay: Test A pre-/postemergence: pigweed
Outline: as §1

[6] = system: velvetleaf (Abutilon theophrasti); assay: Test A pre-/postemergence: velvetleaf
Outline: as §1

[7] = system: wheat (Triticum aestivum); assay: Test A pre-/postemergence: wheat
Outline: as §1

[8] = system: corn (Zea mays); assay: Test A pre-/postemergence: corn
Outline: as §1

[9] = system: rice (Oryza sativa); assay: Test C flooded paddy test: rice; conditions: scale 0 to 100 (0 no effect, 100 complete control)
Outline: (§2)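 Plants at 2-leaf stage in pots flooded 3 cm above soil; compounds applied directly into the paddy water, depth maintained. Visual rating against controls after 13–15 days in greenhouse, scale 0 (no effect) to 100 (complete control).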

[10] = system: sedge, umbrella (small-flower umbrella sedge, Cyperus difformis); assay: Test C flooded paddy test: sedge, umbrella; conditions: scale 0 to 100 (0 no effect, 100 complete control)
Outline: as §2

[11] = system: ducksalad (Heteranthera limosa); assay: Test C flooded paddy test: ducksalad; conditions: scale 0 to 100 (0 no effect, 100 complete control)
Outline: as §2

[12] = system: barnyardgrass (Echinochloa crus-galli); assay: Test C flooded paddy test: barnyardgrass; conditions: scale 0 to 100 (0 no effect, 100 complete control)
Outline: as §2

[13] = Postemergence, 125 g ai/ha, 0 to 100 scale, 0 is no effect, 100 is complete control
[14] = Postemergence, 500 g ai/ha, visual rating on 0 to 100 scale (0 no effect, 100 complete control), approximately ten days
[15] = Preemergence, 125 g ai/ha, 0 to 100 scale (0 no effect, 100 complete control)
[16] = Preemergence, 500 g ai/ha, 0 to 100 scale, 0 is no effect, 100 is complete control
[17] = Flood (flooded paddy test), 125 g ai/ha, visual rating after 13 to 15 days
[18] = Flood (flooded paddy test), 250 g ai/ha, visual rating after 13 to 15 days
[19] = Postemergence, 1000 g ai/ha, visual rating on 0 to 100 scale (0 no effect, 100 complete control), approximately ten days
[20] = Preemergence, 1000 g ai/ha, 0 to 100 scale, 0 is no effect, 100 is complete control

COc1nn(-c2ccc(C(F)(F)F)cc2)nc1C(F)c1ccnc(C(F)(F)F)c1 (centres unmarked) [Compound 80]
30: Barnyardgrass plant response rating [1, 13] | Foxtail, Giant plant response rating [3, 13] | Plant response rating, Velvetleaf [6, 15]
90: Plant response rating, Crabgrass, Large [2, 15] | Plant response rating, Foxtail, Giant [3, 15] | Morningglory plant response rating [4, 14]
70: Barnyardgrass plant response rating [1, 14] | Plant response rating, Barnyardgrass [1, 16] | Plant response rating, Velvetleaf [6, 16] | Plant response rating, Sedge, Umbrella [10, 18]
80: Crabgrass, Large plant response rating [2, 14] | Foxtail, Giant plant response rating [3, 14] | Velvetleaf plant response rating [6, 13]
60: Plant response rating, Morningglory [4, 16]
20: Plant response rating, Barnyardgrass [1, 15] | Wheat plant response rating [7, 13] | Corn plant response rating [8, 13] | Corn plant response rating [8, 14] | Plant response rating, Barnyardgrass [12, 18]
0: Plant response rating, Morningglory [4, 15] | Plant response rating, Wheat [7, 15] | Plant response rating, Corn [8, 15] | Plant response rating, Rice [9, 17] | Plant response rating, Rice [9, 18] | Plant response rating, Rice ([9]; Flood, 31 g ai/ha) | Plant response rating, Rice ([9]; Flood, 62 g ai/ha) | Plant response rating, Sedge, Umbrella [10, 17] | Plant response rating, Sedge, Umbrella ([10]; Flood, 31 g ai/ha) | Plant response rating, Sedge, Umbrella ([10]; Flood, 62 g ai/ha) | Plant response rating, Ducksalad [11, 17] | Plant response rating, Ducksalad [11, 18] | Plant response rating, Ducksalad ([11]; Flood, 31 g ai/ha) | Plant response rating, Ducksalad ([11]; Flood, 62 g ai/ha) | Plant response rating, Barnyardgrass [12, 17] | Plant response rating, Barnyardgrass ([12]; Flood, 31 g ai/ha) | Plant response rating, Barnyardgrass ([12]; Flood, 62 g ai/ha)
10: Plant response rating, Corn [8, 16]
100: Plant response rating, Crabgrass, Large [2, 16] | Plant response rating, Foxtail, Giant [3, 16] | Pigweed plant response rating [5, 13] | Pigweed plant response rating [5, 14] | Plant response rating, Pigweed [5, 15] | Plant response rating, Pigweed [5, 16] | Velvetleaf plant response rating [6, 14]
40: Crabgrass, Large plant response rating [2, 13] | Morningglory plant response rating [4, 13] | Wheat plant response rating [7, 14] | Plant response rating, Wheat [7, 16]

Cc1nn(-c2ccc(C(F)(F)F)cc2)nc1Oc1cccc(Cl)c1 [Compound 84]
40: Pigweed plant response rating [5, 13] | Plant response rating, Ducksalad [11, 18]
50: Crabgrass, Large plant response rating [2, 14] | Plant response rating, Pigweed [5, 16]
10: Barnyardgrass plant response rating [1, 14] | Crabgrass, Large plant response rating [2, 13] | Foxtail, Giant plant response rating [3, 13] | Velvetleaf plant response rating [6, 13] | Corn plant response rating [8, 13] | Plant response rating, Barnyardgrass [12, 18]
60: Plant response rating, Crabgrass, Large [2, 16]
90: Pigweed plant response rating [5, 14]
0: Barnyardgrass plant response rating [1, 13] | Plant response rating, Barnyardgrass [1, 15] | Plant response rating, Barnyardgrass [1, 16] | Plant response rating, Crabgrass, Large [2, 15] | Plant response rating, Foxtail, Giant [3, 15] | Plant response rating, Morningglory [4, 15] | Plant response rating, Morningglory [4, 16] | Plant response rating, Pigweed [5, 15] | Plant response rating, Velvetleaf [6, 15] | Plant response rating, Velvetleaf [6, 16] | Wheat plant response rating [7, 13] | Wheat plant response rating [7, 14] | Plant response rating, Wheat [7, 15] | Plant response rating, Wheat [7, 16] | Plant response rating, Corn [8, 15] | Plant response rating, Corn [8, 16] | Plant response rating, Rice ([9]; Flood, 31 g ai/ha) | Plant response rating, Rice ([9]; Flood, 62 g ai/ha) | Plant response rating, Sedge, Umbrella [10, 17] | Plant response rating, Sedge, Umbrella ([10]; Flood, 31 g ai/ha) | Plant response rating, Sedge, Umbrella ([10]; Flood, 62 g ai/ha) | Plant response rating, Ducksalad [11, 17] | Plant response rating, Ducksalad ([11]; Flood, 31 g ai/ha) | Plant response rating, Ducksalad ([11]; Flood, 62 g ai/ha) | Plant response rating, Barnyardgrass [12, 17] | Plant response rating, Barnyardgrass ([12]; Flood, 31 g ai/ha) | Plant response rating, Barnyardgrass ([12]; Flood, 62 g ai/ha)
30: Plant response rating, Foxtail, Giant [3, 16] | Morningglory plant response rating [4, 13] | Morningglory plant response rating [4, 14] | Corn plant response rating [8, 14]
20: Foxtail, Giant plant response rating [3, 14] | Velvetleaf plant response rating [6, 14] | Plant response rating, Rice [9, 17] | Plant response rating, Rice [9, 18] | Plant response rating, Sedge, Umbrella [10, 18]

Cc1nn(-c2ccc(C(F)(F)F)cc2)nc1Sc1cccc(C(F)(F)F)c1 [Compound 88]
20: Barnyardgrass plant response rating [1, 14]
40: Foxtail, Giant plant response rating [3, 14] | Plant response rating, Foxtail, Giant [3, 16]
10: Barnyardgrass plant response rating [1, 13] | Plant response rating, Barnyardgrass [1, 16] | Foxtail, Giant plant response rating [3, 13] | Morningglory plant response rating [4, 13] | Velvetleaf plant response rating [6, 13] | Wheat plant response rating [7, 14] | Corn plant response rating [8, 14]
30: Crabgrass, Large plant response rating [2, 13]
100: Pigweed plant response rating [5, 14]
0: Plant response rating, Barnyardgrass [1, 15] | Plant response rating, Crabgrass, Large [2, 15] | Plant response rating, Foxtail, Giant [3, 15] | Plant response rating, Morningglory [4, 15] | Plant response rating, Morningglory [4, 16] | Plant response rating, Pigweed [5, 15] | Plant response rating, Velvetleaf [6, 15] | Plant response rating, Velvetleaf [6, 16] | Wheat plant response rating [7, 13] | Plant response rating, Wheat [7, 15] | Plant response rating, Wheat [7, 16] | Corn plant response rating [8, 13] | Plant response rating, Corn [8, 15] | Plant response rating, Corn [8, 16] | Plant response rating, Rice [9, 17] | Plant response rating, Rice [9, 18] | Plant response rating, Rice ([9]; Flood, 31 g ai/ha) | Plant response rating, Rice ([9]; Flood, 62 g ai/ha) | Plant response rating, Sedge, Umbrella [10, 17] | Plant response rating, Sedge, Umbrella [10, 18] | Plant response rating, Sedge, Umbrella ([10]; Flood, 31 g ai/ha) | Plant response rating, Sedge, Umbrella ([10]; Flood, 62 g ai/ha) | Plant response rating, Ducksalad [11, 17] | Plant response rating, Ducksalad [11, 18] | Plant response rating, Ducksalad ([11]; Flood, 31 g ai/ha) | Plant response rating, Ducksalad ([11]; Flood, 62 g ai/ha) | Plant response rating, Barnyardgrass [12, 17] | Plant response rating, Barnyardgrass [12, 18] | Plant response rating, Barnyardgrass ([12]; Flood, 31 g ai/ha) | Plant response rating, Barnyardgrass ([12]; Flood, 62 g ai/ha)
80: Crabgrass, Large plant response rating [2, 14] | Pigweed plant response rating [5, 13] | Velvetleaf plant response rating [6, 14]
50: Plant response rating, Crabgrass, Large [2, 16] | Morningglory plant response rating [4, 14] | Plant response rating, Pigweed [5, 16]

Cc1nn(-c2ccc(F)cc2)nc1Cn1cnc(C(F)(F)F)n1 [Compound 94]
75: Plant response rating, Sedge, Umbrella [10, 18]
70: Barnyardgrass plant response rating [1, 20] | Foxtail, Giant plant response rating [3, 19]
80: Crabgrass, Large plant response rating [2, 19] | Velvetleaf plant response rating [6, 19]
100: Crabgrass, Large plant response rating [2, 20] | Foxtail, Giant plant response rating [3, 20] | Morningglory plant response rating [4, 19] | Pigweed plant response rating [5, 19] | Pigweed plant response rating [5, 20]
60: Morningglory plant response rating [4, 20] | Plant response rating, Sedge, Umbrella [10, 17] | Plant response rating, Ducksalad [11, 18]
20: Velvetleaf plant response rating [6, 20]
50: Plant response rating, Sedge, Umbrella ([10]; Flood, 62 g ai/ha)
0: Wheat plant response rating [7, 20] | Corn plant response rating [8, 20] | Plant response rating, Rice [9, 17] | Plant response rating, Rice [9, 18] | Plant response rating, Rice ([9]; Flood, 31 g ai/ha) | Plant response rating, Rice ([9]; Flood, 62 g ai/ha) | Plant response rating, Sedge, Umbrella ([10]; Flood, 31 g ai/ha) | Plant response rating, Ducksalad ([11]; Flood, 31 g ai/ha) | Plant response rating, Ducksalad ([11]; Flood, 62 g ai/ha) | Plant response rating, Barnyardgrass [12, 17] | Plant response rating, Barnyardgrass [12, 18] | Plant response rating, Barnyardgrass ([12]; Flood, 31 g ai/ha) | Plant response rating, Barnyardgrass ([12]; Flood, 62 g ai/ha)
40: Barnyardgrass plant response rating [1, 19] | Corn plant response rating [8, 19] | Plant response rating, Ducksalad [11, 17]
30: Wheat plant response rating [7, 19]
